One data set has as its target T1, BCRP (Rattus norvegicus, UniProt Q80W57).
T1 construct: from tissue; host or cells: living male Sprague-Dawley rats (intestine)
T1 sequence (Q80W57 1-657): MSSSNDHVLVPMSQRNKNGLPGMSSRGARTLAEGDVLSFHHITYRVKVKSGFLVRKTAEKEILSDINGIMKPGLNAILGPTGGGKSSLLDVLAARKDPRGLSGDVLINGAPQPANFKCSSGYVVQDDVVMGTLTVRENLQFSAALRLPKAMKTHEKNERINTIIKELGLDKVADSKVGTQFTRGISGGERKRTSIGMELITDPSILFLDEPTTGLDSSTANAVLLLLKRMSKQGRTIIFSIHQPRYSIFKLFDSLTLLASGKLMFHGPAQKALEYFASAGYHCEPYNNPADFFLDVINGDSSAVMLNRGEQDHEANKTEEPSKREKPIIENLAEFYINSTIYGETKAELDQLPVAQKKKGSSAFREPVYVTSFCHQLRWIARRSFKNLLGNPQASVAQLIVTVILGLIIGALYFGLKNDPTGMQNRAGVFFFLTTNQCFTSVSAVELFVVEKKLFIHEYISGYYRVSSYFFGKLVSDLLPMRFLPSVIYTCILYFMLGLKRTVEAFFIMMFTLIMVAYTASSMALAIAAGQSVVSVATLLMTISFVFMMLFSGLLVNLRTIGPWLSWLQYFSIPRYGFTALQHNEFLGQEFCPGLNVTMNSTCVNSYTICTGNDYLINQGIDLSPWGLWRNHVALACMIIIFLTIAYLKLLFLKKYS
The data set can be described thus: Oral pharmacokinetics of topotecan (BCRP substrate) in rats with/without co-administered LW6 formulations. Format: in vivo. The procedure:
The pharmacokinetic profiles of topotecan, which is a representative BCRP substrate, were examined in rats with/without the co-administration of LW6 in different formulations. Animal studies were carried out in accordance with the “Guiding Principles in the Use of Animals in Toxicology” adopted by the Society of Toxicology (USA), and the study protocol was approved by the review committee of Dongguk University (IACUC-2017-016-2). Male Sprague–Dawley rats (260–280 g) were provided by Orient bio Co., Ltd. (Seongnam, Korea). All the rats were given free access to tap water and a normal standard chow diet (Superfeed Company, Wonju, Korea). The rats were fasted for 18 h before the experiments, and divided into three groups (n = 3 per group). The pure drug or SD (equivalent to 20 mg/kg of LW6) was suspended in 0.5% aqueous methylcellulose with 5% polyethylene glycol (PEG) and topotecan (10 mg/kg) was dissolved in saline. Each formulation was given orally to the three groups of rats (group 1, topotecan only; group 2, topotecan + pure LW6; group 3, topotecan + SD of LW6). Blood samples were obtained from the femoral artery at the predetermined time points. The blood samples were centrifuged at 13,000 rpm for 5 min, and the obtained plasma samples were frozen at −20 °C until analyzed by liquid chromatography-tandem mass spectrometry (LC-MS/MS).
LC-MS/MS assay for topotecan: The concentration of topotecan in rat plasma was determined using LC-MS/MS assay as reported by Ye et al.. Briefly, 100 µL of plasma, 20 µL of the internal standard camptothecin (1 µg/mL), and 180 µL of methanol were mixed vigorously, and then centrifuged at 13,000 rpm for 5 min. After centrifugation, 240 µL of the supernatant was collected and dried under vacuum. After complete drying, the residue was re-dispersed in methanol and analyzed by LC-MS/MS. Chromatographic separation was done with a C18 column (4.6 × 100 mm, 2.6 μm; Phenomenex, Torrance, CA, USA) using a mobile phase consisting of acetonitrile and 0.1% formic acid (80:20, v/v) at a flow rate of 0.4 mL/min. Mass spectrometric detection was done using the AB Sciex API 4000 triple quadrupole mass spectrometer (AB Sciex, Framingham, MA, USA). The electrospray ionization (ESI) source was set in positive ionization mode. The precursor/product ion pair (m/z) was 422.2/377.1 for topotecan and 349.1/305.2 for camptothecin (IS). The calibration curve was prepared at concentrations of 1 to 1000 ng/mL with a good linearity of r^2 value greater than 0.99.
Based on the noncompartmental analysis, the area under the plasma concentration–time curve (AUC) was calculated using the linear trapezoidal method. The peak plasma concentration (Cmax) and the time to reach the peak plasma concentration (Tmax) were values recorded from the experimental data.

Data set [1] is described as follows: In vitro drug release (dissolution) studies. The format is physicochemical. The settings on record: 37 °C, 100 rpm. The procedure:
The drug release profiles of each formulation were examined at different pH conditions (1.2, 4.0, and 6.8). Each formulation (drug amount equivalent to 1 mg of LW6) was dispersed in different release media (10 mL) and stirred at 100 rpm, 37 °C. At predetermined time points (10, 20, 30, 45, and 60 min), the samples were collected and filtered through a 0.45-µm pore-sized cellulose syringe filters. The drug concentration in each filtrate was determined by HPLC assay.
HPLC assay for LW6: The concentrations of LW6 from in vitro samples were determined using a HPLC system (Perkin Elmer series 200, Waltham, MA, USA) consisting of a UV detector, a pump, and an automatic injector. A reversed-phase C18 column (Gemini C18, 4.6 × 150 mm, 5 µm; Phenomenex, Torrance, CA, USA) was eluted with a mobile phase consisting of acetonitrile and 0.1% formic acid (80:20, v/v). The flow rate was 1.0 mL/min at 30 °C, and the UV wavelength was set at 254 nm. Valsartan was used as an internal standard, and the calibration curve of LW6 was linear (r^2 = 0.99) within the concentration range of 0.05 to 100 µg/mL.

The nature of data set [2]: Apparent aqueous solubility of LW6 formulations (HPLC). The format is physicochemical. The note with it: water. The procedure:
For the selection of optimal carriers, SDs of LW6 were prepared with various hydrophilic polymers at a drug–carrier ratio of 1:5 using the solvent evaporation method. Briefly, LW6 was dissolved in dichloromethane by sonication for 10 min for complete solubilization. Each polymeric carrier was dissolved in dichloromethane and added to the drug solution. After vigorous mixing, all the solvents were eliminated under vacuum at room temperature. The resulting product was milled and sieved through an 80-mesh screen. The corresponding physical mixtures (PMs) were also prepared by mixing LW6 and each carrier with a mortar and pestle. The carrier that enhanced the LW6 solubility to the greatest extent was selected for preparing the ternary SD formulations of LW6. The effect of surfactants on the solubility of LW6 was also determined using a 10% aqueous solution of various surfactants.
Each formulation equivalent to 1 mg of LW6 was dissolved in 1 mL of distilled water and stirred at 300 rpm for 48 h at room temperature. […] The drug concentration in each filtrate was measured by HPLC assay.
HPLC assay for LW6: The concentrations of LW6 from in vitro samples were determined using a HPLC system (Perkin Elmer series 200, Waltham, MA, USA) consisting of a UV detector, a pump, and an automatic injector. […]

In data set [3] the test system is breast cancer resistance protein (BCRP). Set-up: method as in PMID 27520631. The settings on record: previous reports ref 4; cited from earlier work.
The mark [4] stands for this setting: male, Sprague-Dawley, rat, plasma, oral topotecan 10 mg/kg, with or without LW6 20 mg/kg (pure or F8-SD), mean ± SD (n = 3).

As a reminder, the AUC is the area under the concentration-time curve, a measure of exposure. Broadly, the Cmax is the highest concentration seen after dosing. A word on the Tmax: it is the time from dosing to the highest level. Turning to `CC[C@@]1(O)C(=O)OCc2c1cc1n(c2=O)Cc2cc3c(CN(C)C)c(O)ccc3nc2-1` [Topotecan, topotecan], on BCRP (setting [4]), the AUC turned out to be 0.204 ± 0.0111 µg·h/mL, the Cmax came out at 0.0313 ± 0.0071 µg/mL and the Tmax was found to be 0.4 ± 0.1 h. In addition, on BCRP (male, Sprague-Dawley, rat, plasma, oral topotecan 10 mg/kg, with or without LW6 20 mg/kg (pure or F8-SD), mean ± SD (n = 3), read-out: T1/2 of topotecan (converted)), the half-life was 2 ± 0.4 h.

Consider `COC(=O)c1ccc(O)c(NC(=O)COc2ccc(C34CC5CC(CC(C5)C3)C4)cc2)c1` [LW6, 3-[2-(4-adamantan-1-yl-phenoxy)-acetylamino]-4-hydroxy-benzoic acid methyl ester], for which the “Drug release within 20 min” value in data set [1] (acidic to neutral pH range (pH 1.2, 4.0, 6.8)) is listed as “negligible”. Besides, in data set [1] (water), the “Drug release within 1 h” value was “minimal”. The “Aqueous solubility of pure LW6 (in words)” value in data set [2] was “practically insoluble”. For the same compound, the “Increase in oral (systemic) exposure of topotecan by coadministration” value at BCRP (oral topotecan 10 mg/kg + LW6 20 mg/kg equivalent, versus topotecan only) was “approximately threefold”. Moreover, the “BCRP inhibitory potency compared with typical BCRP inhibitor” value in data set [3] is recorded as “more potent than Kol43”.

Values taken from publication PMC6572573, “Development of a Ternary Solid Dispersion Formulation of LW6 to Improve the In Vivo Activity as a BCRP Inhibitor: Preparation and In Vitro/In Vivo Characterization” (Pharmaceutics, 2019).
